For one experiment, the system named is MBr1 monoclonal antibody. The experiment can be described thus: Immune TLC with monoclonal antibody MBr1. The experiment is classed as binding, murine. Conditions: comparable staining with 1/10 the amount of antigen.
In experiment [1] the test system is MAb MBr1 with breast cancer cell lines such as MCF-7. The experiment can be described thus: flow cytometry inhibition assay of mAb MBr1 reactivity with MCF-7. The experiment is classed as cell-based. Conditions: for inhibition of reactivity of MAb MBr1 with breast cancer cell lines such as MCF-7: 8 μg/ml of preparation. On the procedure:
By Thin Layer Chromatography (TLC) the 2 preparations migrate as similar single bands. […] The high level of reactivity of the β structure with mAb MBr1 was confirmed using flow cytometry inhibition assays. Reactivity of MAb MBr1 with breast cancer cell lines such as MCF-7 was 98% inhibited by 8 μg/ml of the β linkage preparation but was only 6% inhibited by 8 μg of the α-linkage preparation.
(§1) The breast tumor glycolipid associated antigen 2 (See FIG. 24) isolated by Hakomori and co-workers from MCF-7 cells, and termed globe H, constituted a promising possibility for exploration (Kannagi, R., et al., J. Biol. Chem. 1983, 258, 8934; Bremer, G., et al., J. Biol. Chem. 1984 259, 14773). Early studies in this area were facilitated by the immunocharacterization of the antigen by the murine monoclonal antibody Mbr1 (Menard, S., et al., Cancer Res. 1983, 43, 1295). Previously, we had described the total synthesis of the hexacyclic globo H glycal 1 (See FIG. 24) by the method of glycal assembly (See FIG. 24) (Bilodeau, M.T., et al., J. Am. Chem. Soc. 1995 117, 7840; Park, et al., J. Am. Chem. Soc. 1996, 118, 11488). This system was carried forward to reach antigen 2 (See FIG. 24), whose structure assignment was verified by unambiguous spectroscopic corroboration through this synthesis.

In the next experiment the test system is mAb MBr1. In words: binding to mAb MBr1, mapping of structural requirements. Also noted: species or system murine.
Description: as §1
We then built upon the logic of our synthesis to prepare congeners of the compound and to use them to map the structural requirements for binding to the mAb MBr1.

Experiment [2] concerns antisera binding to globo H antigen 2. In words: inhibition of binding of anti-globo H antisera to globo H antigen 2 (ELISA). Further details: species or system mice. An excerpt: As an indication of specificity, we conducted assays with compounds 2-8 of FIGS. 24 and 25 to determine their ability to inhibit the binding of antisera to the fully synthetic globo H antigen 2 (FIG. 28). […] Partial inhibition resulted from truncated globo H compounds, but not with unrelated compounds such as ganglioside GD3. These findings are consistent with a polyclonal serological response in which different antibodies react with different portions of compound 2.

Experiment [3] has as its system mice (antibodies against the immunizing antigen). In words: immunization of mice with Le^y conjugates 17c and 32c, ELISA antibody titer. The experiment is classed as in vivo. The conditions noted are these: one set of 5 mice; graphs J-L. On the procedure: The stage was set for immunizations with conjugates 17c and 32c. The immunizations with the BSA conjugate 17c were carried out on two sets of 5 mice and the immunizations with the ceramide conjugate 32c were carried out on one set of 5 mice. An enzyme-linked immunosorbant assay (ELISA) was used to measure antibody titer (FIG. 20(b)). Three different ELISA experiments were performed to measure antibody titer. The first is the measure of total antibody response (aIg), that is the summation of IgM and IgG antibodies, as shown in graphs A, D, G. and J of FIGS. 21(a) and (b). The other two assays measure IgM and IgG antibodies separately as indicated in the graphs. The ELISA assay (see FIG. 20(b)) involves the immobilization of a test antigen in a microtiter well. The serum to be tested for antibodies is placed in the well. Any antibodies in the serum recognizing the test antigen will remain in the well after thorough washing. Next, modified anti-mouse Ig, IgM, or IgG antibodies are placed in the well. […] The presence of the alkaline phosphatase-linked secondary antibody causes cleavage of the phosphate, yielding the yellow p-nitrophenolate anion, which can be quantified using spectrophotometric techniques.
Graphs A, B, and C in FIG. 21(a) show the measured titers of total antibody Ig (A), IgM (B), and IgG (C) type antibodies in five mice immunized with conjugate 17c. […]

Experimental findings from patent US6544952B1, “Synthesis of glycoconjugates of the globo-H epitope and uses thereof” (Sloan-Kettering Institute for Cancer Research, priority 1994, dated 2003) are described below.

Where two headings read alike, the source gives them in different places.

Regarding “Fuca1→GalB1→3GalNAcB1→3Galα1→4GlB1→4GcB1→1Cer [compound 2]”, in the experiment on MBr1 monoclonal antibody, the “reactivity with MBr1 monoclonal antibody, β-form relative to the other form” value is recorded as 10 times. The “inhibition of MBr1 binding to MCF-7 cells” value in experiment [1] is “inhibited its binding to MCF-7 cells”. Moreover, in experiment [1], the “inhibition of reactivity of MAb MBr1 with breast cancer cell lines such as MCF-7” value was determined as 98%. For the same compound, the figures for the “binding to mAb MBr1” value with mAb MBr1 and with mAb MBr1 (listed as 1b) were “bind to the murine monoclonal antibody (mAb) MBr1” and “bind to the monoclonal antibody MBr1”, respectively. In addition, in experiment [2], the “inhibition of binding of antisera to globo H antigen 2” value is “complete inhibition”.

On to “Fucα1→2GalB1→3GalNAcα1→3Galα1→4GalB1→1Cer [α-linkage preparation]”, for which the “inhibition of reactivity of MAb MBr1 with breast cancer cell lines such as MCF-7” value in experiment [1] turned out to be 6%.

With `CCCCCCCCCCCCCC=C[C@@H](O)[C@@H](CO[C@@H]1O[C@H](CO)[C@@H](O[C@@H]2O[C@H](CO)[C@H](O)[C@H](O)[C@H]2O[C@@H]2O[C@@H](C)[C@@H](O)[C@@H](O)[C@@H]2O)[C@H](O[C@@H]2O[C@@H](C)[C@@H](O)[C@@H](O)[C@@H]2O)[C@H]1NC(C)=O)NC(=O)CCCCCCCCCCCCCCC` [32c, (3R)-Hydroxy-(2R)-hexadecanamido-4-octadecenyl-[[[(6-deoxy-a-L-galactopyranosyl)-(1→2)]-(b-D-galactopyranosyl)-(1→4)]-(6-deoxy-a-L-galactopyranosyl)-(1→3)]-2-deoxy-2-acetamido-b-D-glucopyranose], in experiment [3], the IgG response entry is “No mice showed any IgG response” and the IgM response entry is listed as “Most mice showed only a weak IgM response”.
